From ChEMBL document CHEMBL1139001, “Alkyl-linked bis-THTT derivatives as potent in vitro trypanocidal agents” (Bioorg Med Chem Lett, 2006)

Columns and labels:
[1] = Therapeutic index (cytotoxicity/antitrypanosomal activity); format: cell-based; details: human, KB cells; read-out: Ratio IC50
KB = experiment: Cytotoxicity against KB cell line; format: functional, cell-based; details: Homo sapiens
[2] = Therapeutic index (cytotoxicity/antiprotozoal activity); format: cell-based; details: human, KB cells; read-out: Ratio IC50
Leishmania donovani = experiment: Antiprotozoal activity against Leishmania donovani; format: functional, organism-based
Plasmodium falciparum = experiment: Antiplasmodial activity against Plasmodium falciparum 3D7; format: functional, organism-based
[3] = system: Trypanosoma brucei rhodesiense; experiment: Antitrypanosomal activity against Trypanosoma brucei rhodesiense STIB900; format: functional, organism-based
[4] = Therapeutic index, ratio of cytotoxicity/antiplasmodial activity; format: cell-based; details: human, KB cells; read-out: Ratio IC50

IC50 (Leishmania donovani) [µM] | IC50 (Plasmodium falciparum) [µM] | IC50 [3] [µM] | SMILES | selectivity ratio [1] | IC50 (KB) [µM] | selectivity ratio [2] | selectivity ratio [4]
5.54 | 9.56 | 1.04 | CC(C)(CN1CN(C(Cc2ccccc2)C(=O)O)CSC1=S)CN1CN(C(Cc2ccccc2)C(=O)O)CSC1=S (stereo unspecified) | 2.1 | 2.21 | 0.4 | 0.2
> 49 | 11 | 9.37 | NC(=O)CCC(C(=O)O)N1CSC(=S)N(CCCCCCN2CN(C(CCC(N)=O)C(=O)O)CSC2=S)C1 (stereo unspecified) | 5.8 | 52 | – | 4.7
7.07 | 11 | 0.73 | O=C(O)CN1CSC(=S)N(CCCCCCN2CN(CC(=O)O)CSC2=S)C1 | 11.4 | 8.33 | 1.2 | 0.8
6.47 | 16.9 | 0.36 | O=C(O)CCCCN1CSC(=S)N(CCCCCCN2CN(CCCCC(=O)O)CSC2=S)C1 | 44.4 | 16.1 | 2.4 | 1
6.85 | 3.76 | 2.88 | CC(C)(CN1CN(CC(=O)O)CSC1=S)CN1CN(CC(=O)O)CSC1=S | 1.7 | 5.09 | 0.7 | 1.3
30.2 | 23.2 | 3.6 | O=C(O)CC(C(=O)O)N1CSC(=S)N(CCCCCCN2CN(C(CC(=O)O)C(=O)O)CSC2=S)C1 (stereo unspecified) | – | 76.3 | – | 0.9
7.26 | 14.2 | 2.3 | CSCCC(C(=O)O)N1CSC(=S)N(CCCCCCN2CN(C(CCSC)C(=O)O)CSC2=S)C1 (stereo unspecified) | 41.2 | 52.5 | 7.3 | 3.7
24.3 | 43.3 | 4.27 | O=C(O)CCCN1CSC(=S)N(CCCCCCN2CN(CCCC(=O)O)CSC2=S)C1 | – | 11.7 | – | 2
7.27 | 9.04 | 2.48 | CC(C)(CN1CN(CCCCC(=O)O)CSC1=S)CN1CN(CCCCC(=O)O)CSC1=S | 3.4 | 8.16 | 1.1 | 0.9
5.42 | 9.13 | 0.73 | O=C(O)C(Cc1ccccc1)N1CSC(=S)N(CCCCCCN2CN(C(Cc3ccccc3)C(=O)O)CSC2=S)C1 (stereo unspecified) | 7.9 | 5.73 | 1.1 | 0.6
2.18 | 13.1 | 0.56 | O=C(O)CCN1CSC(=S)N(CCCCCCN2CN(CCC(=O)O)CSC2=S)C1 | 21.8 | 12.3 | 5.6 | 0.9
19.5 | 39.5 | 5.34 | NC(=O)CC(C(=O)O)N1CSC(=S)N(CCCCCCN2CN(C(CC(N)=O)C(=O)O)CSC2=S)C1 (stereo unspecified) | > 10 | > 51.7 | > 30 | > 2
– | – | 0.011 | N=C(N)c1ccc(OCCCCCOc2ccc(C(=N)N)cc2)cc1 [PENTAMIDINE] | – | – | – | –
– | – | – | COc1cc([C@@H]2c3cc4c(cc3[C@H](O)[C@H]3COC(=O)[C@H]23)OCO4)cc(OC)c1OC [PODOFILOX] | – | 0.0036 | – | –
